According to patent US10807986B2, “Fused pyrimidine compound or salt thereof” (TAIHO PHARMACEUTICAL CO., LTD., priority 2016, dated 2020):

Test: Evaluation of stability in liver microsome
Conditions: mouse liver microsome 0.25 mg/mL, test compound 1 μM, 37° C., 30 minutes
Experimental: Solutions of the test compounds in DMSO/acetonitrile (the final concentration of each test compound was 1 μM, the final concentration of DMSO was 0.01%, and the final concentration of acetonitrile was 1%) were individually added to a liver microsome mixture solution (mouse liver microsome with a final concentration of 0.25 mg/mL, a potassium phosphate buffer with a final concentration of 100 mM, and magnesium chloride with a final concentration of 3 mM), and each mixture was pre-incubated at 37° C. for 5 minutes. […] After incubation at 37° C. for 30 minutes, a double amount of ethanol was added thereto to terminate the reaction, thereby obtaining post-reaction samples. A double amount of ethanol was added to each of the remaining mixture solutions, and a NADPH-generating system was further added thereto, thereby obtaining pre-reaction samples. The pre-reaction samples and post-reaction samples were centrifuged at 2000×g, and their supernatant was filtered through a glass filter. Each filtrate was then introduced into LC-MS/MS, and MS/MS peaks of the test compounds were detected. From the ratio of the post-reaction MS/MS peak to the pre-reaction MS/MS peak of the test compounds, the percentage of the remaining test compounds (remaining %) was calculated.

Going from `COCc1ccc(NC(=O)c2c(C#CCCN3CCOCC3)n(C3(C)CC3)c3ncnc(N)c23)cc1` [Example 187, 4-amino-N-(4-(methoxymethyl)phenyl)-7-(1-methylcyclopropyl)-6-(4-morpholinobut-1-yn-1-yl)-7H-pyrrolo [2,3-d]pyrimidine-5-carboxamide] to `COCc1ccc(NC(=O)c2c(C#CCN3CCCCC3)n(C3(C)CC3)c3ncnc(N)c23)cc1` [Example 105, 4-amino-N-[4-(methoxymethyl)phenyl]-7-(1-methylcyclopropyl)-6-(3-(piperidin-1-yl)prop-1-yn-1-yl)-7H-pyrrolo[2,3-d]pyrimidine-5-carboxamide], the “Remaining (%)” value falls from 68% to 52%.

Compared with `COCc1ccc(NC(=O)c2cn(C(C)(C)CF)c3ncnc(N)c23)cc1F` [Example 41, 4-amino-7-(1-fluoro-2-methylpropan-2-yl)-N-(3-fluoro-4-(methoxymethyl)phenyl)-7H-pyrrolo[2,3-d]pyrimidine-5-carboxamide], `COCc1ccc(NC(=O)c2cn(C(C)(C)C)c3ncnc(N)c23)cc1F` [Example 30, 4-amino-7-(tert-butyl)-N-(3-fluoro-4-(methoxymethyl)phenyl)-7H-pyrrolo[2,3-d]pyrimidine-5-carboxamide] is lower in “Remaining (%)” value: 56% for the first, 54% for the second.

First: COCc1ccc(NC(=O)c2c(OCC3CCOCC3)n(C3(C)CC3)c3ncnc(N)c23)cc1 [Example 141, 4-amino-N-(4-(methoxymethyl)phenyl)-7-(1-methylcyclopropyl)-6-((tetrahydro-2H-pyran-4-yl)methoxy)-7H-pyrrolo[2,3-d]pyrimidine-5-carboxamide]
Second: COCc1ccc(NC(=O)c2c(OC[C@H]3CCCO3)n(C3(C)CC3)c3ncnc(N)c23)cc1 [Example 89, (R)-4-amino-N-[4-(methoxymethyl)phenyl]-7-(1-methylcyclopropyl)-6-((tetrahydrofuran-2-yl)methoxy)-7H-pyrrolo[2,3-d]pyrimidine-5-carboxamide]
The “Remaining (%)” value of the first is lower: 68% for the first, 69% for the second.

Compared with `COCc1ccc(NC(=O)c2c(C#CC(C)(C)N)n(C3(C)CC3)c3ncnc(N)c23)cc1` [Example 134, 4-amino-6-(3-amino-3-methylbut-1-yn-1-yl)-N-(4-(methoxymethyl)phenyl)-7-(1-methylcyclopropyl)-7H-pyrrolo[2,3-d]pyrimidine-5-carboxamide], `COCc1ccc(NC(=O)c2c(C#CC(C)(C)O)n(C3(C)CC3)c3ncnc(N)c23)cc1` [Example 174, 4-amino-6-(3-hydroxy-3-methylbut-1-yn-1-yl)-N-(4-(methoxymethyl)phenyl)-7-(1-methylcyclopropyl)-7H-pyrrolo[2,3-d]pyrimidine-5-carboxamide] is lower in “Remaining (%)” value: 79% for the first, 72% for the second.

Going from `COCc1ccc(NC(=O)c2c(C#Cc3cnc4ccoc4c3)n(C3(C)CC3)c3ncnc(N)c23)cc1` [Example 159, 4-amino-6-(furo[3,2-b]pyridin-6-ylethynyl)-N-(4-(methoxymethyl)phenyl)-7-(1-methylcyclopropyl)-7H-pyrrolo[2,3-d]pyrimidine-5-carboxamide] to `COCc1ccc(NC(=O)c2c(C#Cc3ccc(N)nc3)n(C3(C)CC3)c3ncnc(N)c23)cc1` [Example 155, 4-amino-6-((6-aminopyridin-3-yl)ethynyl)-N-(4-(methoxymethyl)phenyl)-7-(1-methylcyclopropyl)-7H-pyrrolo[2,3-d]pyrimidine-5-carboxamide], the “Remaining (%)” value falls from 78% to 64%.

Compared with `COCc1ccc(NC(=O)c2c(C#Cc3cncs3)n(C3(C)CC3)c3ncnc(N)c23)cc1` [Example 193, 4-amino-N-[4-(methoxymethyl)phenyl]-7-(1-methylcyclopropyl)-6-(thiazol-5-ylethynyl)-7H-pyrrolo[2,3-d]pyrimidine-5-carboxamide], `COCc1ccc(NC(=O)c2c(C#Cc3cncnc3)n(C3(C)CC3)c3ncnc(N)c23)cc1` [Example 196, 4-amino-N-(4-(methoxymethyl)phenyl)-7-(1-methylcyclopropyl)-6-(pyrimidin-5-ylethynyl)-7H-pyrrolo[2,3-d]pyrimidine-5-carboxamide] is higher in “Remaining (%)” value: 51% for the first, 53% for the second.

`COCc1ccc(NC(=O)c2c(C#CC3CCOCC3)n(C3(C)CC3)c3ncnc(N)c23)cc1F` [Example 205, 4-amino-N-(3-fluoro-4-(methoxymethyl)phenyl)-7-(1-methylcyclopropyl)-6-((tetrahydro-2H-pyran-4-yl)ethynyl)-7H-pyrrolo[2,3-d]pyrimidine-5-carboxamide] and `COCc1ccc(NC(=O)c2cn(C3(C)CC3)c3ncnc(N)c23)cc1F` [Example 48, 4-amino-N-(3-fluoro-4-(methoxymethyl)phenyl)-7-(1-methylcyclopropyl)-7H-pyrrolo[2,3-d]pyrimidine-5-carboxamide] are the same in “Remaining (%)” value: 58% for the first, 58% for the second.

Going from `CC(C)(C)n1cc(C(=O)Nc2ccc(-c3cc[nH]n3)cc2)c2c(N)ncnc21` [Example 80, N-(4-(1H-pyrazol-3-yl)phenyl)-4-amino-7-(tert-butyl)-7H-pyrrolo[2,3-d]pyrimidine-5-carboxamide] to `[2H]C([2H])([2H])OCc1ccc(NC(=O)c2cn(C(C)(C)C)c3ncnc(N)c23)cc1` [Example 35, 4-amino-7-(tert-butyl)-N-(4-((methoxy-d3)-methyl)phenyl)-7H-pyrrolo[2,3-d]pyrimidine-5-carboxamide], the “Remaining (%)” value rises from 50% to 58%.

Going from `COCc1ccc(NC(=O)c2c(Br)n(C3(C)CC3)c3ncnc(N)c23)cc1` [Example 55, 4-amino-6-bromo-N-[4-(methoxymethyl)phenyl]-7-(1-methylcyclopropyl)-7H-pyrrolo[2,3-d]pyrimidine-5-carboxamide] to `COCc1ccc(NC(=O)c2c(Cl)n(C3(C)CC3)c3ncnc(N)c23)cc1` [Example 56, 4-amino-6-chloro-N-[4-(methoxymethyl)phenyl]-7-(1-methylcyclopropyl)-7H-pyrrolo[2,3-d]pyrimidine-5-carboxamide], the “Remaining (%)” value rises from 56% to 62%.

Going from `C=C(C)c1c(C(=O)Nc2ccc(COC)cc2)c2c(N)ncnc2n1C1(C)CC1` [Example 149, 4-amino-N-(4-(methoxymethyl)phenyl)-7-(1-methylcyclopropyl)-6-(prop-1-en-2-yl)-7H-pyrrolo[2,3-d]pyrimidine-5-carboxamide] to `COCc1ccc(NC(=O)c2c(C(C)O)n(C3(C)CC3)c3ncnc(N)c23)cc1` (stereo not drawn) [Example 204, 4-amino-6-(1-hydroxyethyl)-N-(4-(methoxymethyl)phenyl)-7-(1-methylcyclopropyl)-7H-pyrrolo[2,3-d]pyrimidine-5-carboxamide], the “Remaining (%)” value rises from 62% to 83%.

Compared with `COCc1ccc(NC(=O)c2c(-c3ccc(NC(C)=O)nc3)n(C3(C)CC3)c3ncnc(N)c23)cc1` [Example 147, 6-(6-acetamidopyridin-3-yl)-4-amino-N-(4-(methoxymethyl)phenyl)-7-(1-methylcyclopropyl)-7H-pyrrolo[2,3-d]pyrimidine-5-carboxamide], `COCc1ccc(NC(=O)c2c(-c3ccc(N4CCN(C)CC4)cc3)n(C3(C)CC3)c3ncnc(N)c23)cc1` [Example 171, 4-amino-N-(4-(methoxymethyl)phenyl)-7-(1-methylcyclopropyl)-6-(4-(4-methylpiperazin-1-yl)phenyl)-7H-pyrrolo[2,3-d]pyrimidine-5-carboxamide] is higher in “Remaining (%)” value: 68% for the first, 77% for the second.

First: COCc1ccc(NC(=O)c2c(C#Cc3cncc(F)c3)n(C3(C)CC3)c3ncnc(N)c23)cc1 [Example 175, 4-amino-6-((5-fluoropyridin-3-yl)ethynyl)-N-(4-(methoxymethyl)phenyl)-7-(1-methylcyclopropyl)-7H-pyrrolo[2,3-d]pyrimidine-5-carboxamide]
Second: COCc1ccc(NC(=O)c2c(C#Cc3ccc[nH]3)n(C3(C)CC3)c3ncnc(N)c23)cc1 [Example 161, 6-((1H-pyrrol-2-yl)ethynyl)-4-amino-N-(4-(methoxymethyl)phenyl)-7-(1-methylcyclopropyl)-7H-pyrrolo[2,3-d]pyrimidine-5-carboxamide]
The “Remaining (%)” value of the first is lower: 66% for the first, 68% for the second.

Compared with `COCc1ccc(NC(=O)c2c(C#CCC3(O)COC3)n(C3(C)CC3)c3ncnc(N)c23)cc1` [Example 125, 4-amino-6-(3-(3-hydroxyoxetan-3-yl)prop-1-yn-1-yl)-N-(4-(methoxymethyl)phenyl)-7-(1-methylcyclopropyl)-7H-pyrrolo[2,3-d]pyrimidine-5-carboxamide], `COCc1ccc(NC(=O)c2c(C#CCC(C)O)n(C3(C)CC3)c3ncnc(N)c23)cc1` (stereo not drawn) [Example 188, 4-amino-6-(4-hydroxypent-1-yn-1-yl)-N-(4-(methoxymethyl)phenyl)-7-(1-methylcyclopropyl)-7H-pyrrolo[2,3-d]pyrimidine-5-carboxamide] is lower in “Remaining (%)” value: 74% for the first, 68% for the second.

First: CCn1nccc1C#Cc1c(C(=O)Nc2ccc(COC)cc2)c2c(N)ncnc2n1C1(C)CC1 [Example 114, 4-amino-6-((1-ethyl-1H-pyrazol-5-yl)ethynyl)-N-(4-(methoxymethyl)phenyl)-7-(1-methylcyclopropyl)-7H-pyrrolo[2,3-d]pyrimidine-5-carboxamide]
Second: C=Cc1c(C(=O)Nc2ccc(COC)cc2)c2c(N)ncnc2n1C1(C)CC1 [Example 65, 4-amino-N-(4-(methoxymethyl)phenyl)-7-(1-methylcyclopropyl)-6-vinyl-7H-pyrrolo[2,3-d]pyrimidine-5-carboxamide]
The “Remaining (%)” value of the first is lower: 55% for the first, 79% for the second.

First: COCc1ccc(NC(=O)c2cn(C(C)(C)C(F)F)c3ncnc(N)c23)cc1 [Example 50, 4-amino-7-(1,1-difluoro-2-methylpropan-2-yl)-N-(4-(methoxymethyl)phenyl)-7H-pyrrolo[2,3-d]pyrimidine-5-carboxamide]
Second: COCc1ccc(NC(=O)c2c(C#CCC3CCCCC3)n(C3(C)CC3)c3ncnc(N)c23)cc1 [Example 199, 4-amino-6-(3-cyclohexylprop-1-yn-1-yl)-N-(4-(methoxymethyl)phenyl)-7-(1-methylcyclopropyl)-7H-pyrrolo[2,3-d]pyrimidine-5-carboxamide]
The “Remaining (%)” value of the first is lower: 53% for the first, 80% for the second.
